Laboratory results published in EP4567035A1, “NOVEL COMPOUND AS HYPOXIA-INDUCIBLE FACTOR 1(HIF-1) INHIBITOR OR VASCULAR ENDOTHELIAL GROWTH FACTOR (VEGF) INHIBITOR, AND PHARMACEUTICAL COMPOSITION COMPRISING SAME” (Nextgen Bioscience Co., Ltd., priority 2022, dated 2024).

How the values were obtained:
[1] = system: VEGF; experiment: Evaluation of VEGF protein secretion level (Human VEGF ELISA) in ARPE-19 cell medium under hypoxic conditions; assay type: cell-based; conditions: ARPE-19 cells; pretreated 2 hours, 24 hours hypoxic conditions; secreted VEGF in medium supernatant by ELISA; concentration range reducing VEGF by 50% vs untreated control; read-out: IC50 VEGF
In short: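 Human ARPE-19 cells were pretreated 2 h with compound (0.1 nM–10 µM, in DMEM/F12 with 1% FBS), then held 24 h in hypoxia (1% O2, 5% CO2). Secreted VEGF in the supernatant was quantified by ELISA (A450). The value is the concentration range giving ≥50% VEGF reduction versus untreated control.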

[2] = biological target: T1, HIF-1α (Homo sapiens, UniProt Q16665); experiment: Analysis of HIF-1α protein expression (Western blot) in ARPE-19 cells under mixed hypoxic condition; assay type: cell-based; conditions: values marked * in the table, mixed hypoxic condition (1% oxygen + CoCl2) for 24 hours, concentration range at which HIF-1α expression is reduced by 50% vs untreated control, read-out: IC50 HIF-1α, Hypoxia(24h)
T1 construct: endogenous in cells; host or cells: ARPE-19 (ATCC CRL-2302)
In short: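 ARPE-19 cells were pretreated 16 h or 2 h with compound (0.1 nM–10 µM, serum-free DMEM/F12), then held 1 h or 24 h in mixed hypoxia (1% O2 plus CoCl2). HIF-1α was quantified by Western blot against β-actin; the concentration range giving ≥50% reduction vs untreated control was reported.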

T1 sequence (Q16665 whole entry): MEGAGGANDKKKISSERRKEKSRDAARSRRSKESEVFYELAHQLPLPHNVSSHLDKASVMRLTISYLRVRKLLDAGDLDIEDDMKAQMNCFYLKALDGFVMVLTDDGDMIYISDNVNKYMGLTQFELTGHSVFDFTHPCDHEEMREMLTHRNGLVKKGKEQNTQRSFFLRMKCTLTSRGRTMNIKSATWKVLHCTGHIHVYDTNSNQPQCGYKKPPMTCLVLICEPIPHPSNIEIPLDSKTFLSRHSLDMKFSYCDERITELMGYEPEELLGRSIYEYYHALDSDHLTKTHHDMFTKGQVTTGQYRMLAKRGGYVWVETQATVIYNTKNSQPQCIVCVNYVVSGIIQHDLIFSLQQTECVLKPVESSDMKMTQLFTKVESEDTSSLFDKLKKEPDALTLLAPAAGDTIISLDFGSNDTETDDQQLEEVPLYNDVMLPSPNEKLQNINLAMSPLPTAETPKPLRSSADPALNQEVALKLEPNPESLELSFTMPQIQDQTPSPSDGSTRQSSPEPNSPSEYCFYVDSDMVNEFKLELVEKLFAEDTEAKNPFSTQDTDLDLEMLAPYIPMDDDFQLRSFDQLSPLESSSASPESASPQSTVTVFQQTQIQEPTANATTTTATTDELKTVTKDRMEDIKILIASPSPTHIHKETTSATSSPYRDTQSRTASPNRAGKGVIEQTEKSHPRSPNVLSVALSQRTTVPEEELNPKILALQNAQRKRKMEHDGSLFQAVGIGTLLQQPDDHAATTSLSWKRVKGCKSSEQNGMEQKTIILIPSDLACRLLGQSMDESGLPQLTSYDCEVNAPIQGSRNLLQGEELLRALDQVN

IC50 [1] [nM]	DC50 [2] [nM]	SMILES
100 to 1000	100 to 1000	O=C(NCc1cc(F)cc(-c2cnn(-c3ccc(F)cc3)c2)c1)c1ncnc2nc(C34CCC(C3)C4)[nH]c12 [Example 115, 8-(Bicyclo[2.1.1]hexan-1-yl)-N-(3-fluoro-5-(1-(4-fluorophenyl)-1H-pyrazol-4-yl)benzyl)-7H-purine-6-carboxamide]
> 10000	100 to 1000	O=C(NCc1cc(F)cc(-n2cc(-c3ccc(F)cc3)nn2)c1)c1ncnc2nc(C3CCCC3)[nH]c12 [Example 116, 8-Cyclopentyl-N-(3-fluoro-5-(4-(4-fluorophenyl)-1H-1,2,3-triazol-1-yl)benzyl)-7H-purine-6-carboxamide]
100 to 1000	< 100	O=C(NCc1cc(F)cc(-c2cnn(-c3ccsc3)c2)c1)c1ncnc2nc(C3CCCC3)[nH]c12 [Example 117, 8-Cyclopentyl-N-(3-fluoro-5-(1-(thiophen-3-yl)-1H-pyrazol-4-yl)benzyl)-7H-purine-6-carboxamide]
100 to 1000	< 100	Cn1ccc(Nc2cc(F)cc(CNC(=O)c3ncnc4nc(C5CCCC5)[nH]c34)c2)n1 [Example 118, 8-Cyclopentyl-N-(3-fluoro-5-((1-methyl-1H-pyrazol-3-yl)amino)benzyl)-7H-purine-6-carboxamide]
> 10000	100 to 1000	O=C(NCc1cc(F)cc(-c2cn(-c3ccc(F)cc3)nn2)c1)c1ncnc2nc(C3CCCC3)[nH]c12 [Example 119, 8-Cyclopentyl-N-(3-fluoro-5-(1-(4-fluorophenyl)-1H-1,2,3-triazol-4-yl)benzyl)-7H-purine-6-carboxamide]
> 10000	100 to 1000	O=C(NCc1cc(F)cc(Nc2cc[nH]n2)c1)c1ncnc2nc(C3CCCC3)[nH]c12 [Example 120, N-(3-((1H-pyrazol-3-yl)amino)-5-fluorobenzyl)-8-cyclopentyl-7H-purine-6-carboxamide]
> 10000	100 to 1000	O=C(NCc1cc(F)cc(Nc2ccon2)c1)c1ncnc2nc(C3CCCC3)[nH]c12 [Example 121, 8-Cyclopentyl-N-(3-fluoro-5-(isoxazol-3-ylamino)benzyl)-7H-purine-6-carboxamide]
< 100	< 100	N#Cc1ccc(Nc2cc(F)cc(CNC(=O)c3ncnc4nc(C5CCCC5)[nH]c34)c2)cc1 [Example 122, N-(3-((4-cyanophenyl)amino)-5-fluorobenzyl)-8-cyclopentyl-7H-purine-6-carboxamide]
< 100	< 100	CC(=O)c1ccc(-n2cc(-c3cc(F)cc(CNC(=O)c4ncnc5nc(C6CCCC6)[nH]c45)c3)cn2)cc1 [Example 123, N-(3-(1-(4-acetylphenyl)-1H-pyrazol-4-yl)-5-fluorobenzyl)-8-cyclopentyl-7H-purine-6-carboxamide]
100 to 1000	< 100	O=C(NCc1cc(F)cc(-c2cnn(-c3ccoc3)c2)c1)c1ncnc2nc(C3CCCC3)[nH]c12 [Example 124, 8-Cyclopentyl-N-(3-fluoro-5-(1-(furan-3-yl)-1H-pyrazol-4-yl)benzyl)-7H-purine-6-carboxamide]
100 to 1000	< 100	O=C(NCc1cc(F)cc(-c2cnn(-c3cnn(Cc4ccccc4)c3)c2)c1)c1ncnc2nc(C3CCCC3)[nH]c12 [Example 125, N-(3-(1'-benzyl-1'H-[1,4'-bipyrazol]-4-yl)-5-fluorobenzyl)-8-cyclopentyl-7H-purine-6-carboxamide]
< 100	< 100	NC(=O)c1ccc(Nc2cc(F)cc(CNC(=O)c3ncnc4nc(C5CCCC5)[nH]c34)c2)cc1 [Example 126, N-(3-((4-carbamoylphenyl)amino)-5-fluorobenzyl)-8-cyclopentyl-7H-purine-6-carboxamide]
> 10000	100 to 1000	CCOC(=O)c1ccc(Nc2cc(F)cc(CNC(=O)c3ncnc4nc(C5CCCC5)[nH]c34)c2)cc1 [Example 127, Ethyl 4-((3-((8-cyclopentyl-7H-purine-6-carboxamido)methyl)-5-fluorophenyl)amino)benzoate]
< 100	< 100	Cn1cc(-n2cc(-c3cc(F)cc(CNC(=O)c4ncnc5nc(C6CCCC6)[nH]c45)c3)cn2)cn1 [Example 128, 8-Cyclopentyl-N-(3-fluoro-5-(1'-methyl-1'H-[1,4'-bipyrazol]-4-yl)benzyl)-7H-purine-6-carboxamide]
> 10000	1000 to 10000	CN1CCC(Nc2cc(F)cc(CNC(=O)c3ncnc4nc(C5CCCC5)[nH]c34)c2)CC1 [Example 129, 8-Cyclopentyl-N-(3-fluoro-5-((1-methylpiperidin-4-yl)amino)benzyl)-7H-purine-6-carboxamide]
100 to 1000	< 100	O=C(NCc1cc(F)cc(Nc2ccsc2)c1)c1ncnc2nc(C3CCCC3)[nH]c12 [Example 130, 8-Cyclopentyl-N-(3-fluoro-5-(thiophen-3-ylamino)benzyl)-7H-purine-6-carboxamide]
> 10000	1000 to 10000	O=C(NCc1cc(F)cc(N2CCN(c3ccc(F)cc3)CC2)c1)c1ncnc2nc(C3CCCC3)[nH]c12 [Example 131, 8-Cyclopentyl-N-(3-fluoro-5-(4-(4-fluorophenyl)piperazin-1-yl)benzyl)-7H-purine-6-carboxamide]
> 10000	1000 to 10000	O=C(NCc1cc(F)cc(-c2nnc(-c3ccc(F)cc3)o2)c1)c1ncnc2nc(C3CCCC3)[nH]c12 [Example 132, 8-Cyclopentyl-N-(3-fluoro-5-(5-(4-fluorophenyl)-1,3,4-oxadiazol-2-yl)benzyl)-7H-purine-6-carboxamide]
> 10000	100 to 1000	O=C(O)c1ccc(Nc2cc(F)cc(CNC(=O)c3ncnc4nc(C5CCCC5)[nH]c34)c2)cc1 [Example 133, 4-((3-((8-Cyclopentyl-7H-purine-6-carboxamido)methyl)-5-fluorophenyl)amino)benzoic acid]
> 10000	100 to 1000	O=C(NCc1cc(F)cc(Nc2nnco2)c1)c1ncnc2nc(C3CCCC3)[nH]c12 [Example 134, N-(3-((1,3,4-oxadiazol-2-yl)amino)-5-fluorobenzyl)-8-cyclopentyl-7H-purine-6-carboxamide]
> 10000	100 to 1000	O=C(NCc1cc(F)cc(NC2CCCC2)c1)c1ncnc2nc(C3CCCC3)[nH]c12 [Example 135, 8-Cyclopentyl-N-(3-(cyclopentylamino)-5-fluorobenzyl)-7H-purine-6-carboxamide]
> 10000	100 to 1000	O=C(NCc1cc(F)cc(Nc2nncs2)c1)c1ncnc2nc(C3CCCC3)[nH]c12 [Example 136, N-(3-((1,3,4-thiadiazol-2-yl)amino)-5-fluorobenzyl)-8-cyclopentyl-7H-purine-6-carboxamide]
> 10000	100 to 1000	O=C(NCc1cc(F)cc(N2CCCN(c3ccc(F)cc3)CC2)c1)c1ncnc2nc(C3CCCC3)[nH]c12 [Example 137, 8-Cyclopentyl-N-(3-fluoro-5-(4-(4-fluorophenyl)-1,4-diazepan-1-yl)benzyl)-7H-purine-6-carboxamide]
100 to 1000	< 100	O=C(NCc1cc(F)cc(-c2cnn(C3CCCC3)c2)c1)c1ncnc2nc(C3CCCC3)[nH]c12 [Example 138, 8-Cyclopentyl-N-(3-(1-cyclopentyl-1H-pyrazol-4-yl)-5-fluorobenzyl)-7H-purine-6-carboxamide]
